Source: US10758609B2, “Cross-reactive T-cell epitopes of HIV, SIV, and FIV for vaccines in humans and cats” (priority 2015, dated 2020)

What was measured:
[1] = test system: PBMC from HIV^+ subjects; test: IFNγ ELISpot of PBMC from HIV+ human subjects; type: cell-based
Protocol: (§1) The overlapping peptide pools of FIV and HIV-1 structural and enzyme proteins were used to stimulate the […] (PBMC) and the T cells from HIV^+ subjects as previously described for epitope mapping of HIV-1 and FIV p24 and reverse transcriptase (RT) (Sanou et al., 2013; Roff et al., 2015). The individual peptides in those peptide pools with positive responses to either interferon-γ (IFNγ) production and/or T-cell proliferation were determined with IFNγ ELISpot analysis and CFSE-based CD3^+CD4^+ and CD3^+CD8^+ T-cell proliferation analyses followed by the FACS-based intracellular staining (ICS) for cytolysin (perforin) and cytotoxin (granzyme A [GrzA] and GrzB) (Sanou et al., 2013; Roff et al., 2015). Besides viral p24 and RT proteins, the identical approach was used to identify anti-HIV/FIV T-cell epitopes on viral matrix (MA), nucleocapsid (NC), protease (PR), RNAase, integrase (IN), surface envelope (SU Env), and transmembrane envelope (TM Env) (FIG. 12).
(§2) Since our goal is to develop HIV vaccine for human use, the HIV peptides (Table 10) counterpart of the cross-reactive FIV peptides shown in Table 9 were tested with PBMC and T cells from HIV^+ subjects. The immune functions analyzed were human IFNγ production by ELISpot, cytolysin/cytotoxin production by ICS, and CFSE-based proliferation of CD3^+CD4^+ and CD3^+CD8^+ T cells from HIV^+ subjects (Table 10, the first set of results). In addition, the Los Alamos National Laboratories (LANL) database was used to identify the HLA allele(s) of the HIV epitope sequence with CTL activity that can exist within the sequence of the conserved counterpart HIV peptide (Table 9, LANL CTL). The bold HLA class-I supertypes and the bold 2-digit alleles are those on the “Optimal CD8^+ CTL Epitopes” list and those without bold are alleles for potential CTL epitope. […] The HLA class II such as HLA-DRB1 has yet to be fully classified into supertypes, and therefore the 4-digit resolution nomenclatures for the HLA-DRB1 alleles are shown.
In addition, these peptides were also analyzed for IFNγ production, CD4^+ and CD8^+ T-cell proliferation, and cytolysin (perforin) and cytotoxin (granzyme A (GrzA) and GrzB)) mRNA production of PBMC or T cells from 8-30 HIV^+ human subjects. The frequency of responders is based on the individual responses of the vaccinated cats or HIV^+ human subjects after subtraction of the average of the responses of PBMC or T cells from 6-8 non-vaccinated cats or 8-20 HIV-negative human subjects.
(§3) The threshold for positive IFNγ and IL2 ELISpot responses is ≥50 spot-forming units (SFU) per 10^6 PBMC. The threshold for CFSE-based CD4^+ and CD8^+ T-cell proliferation is ≥2% CD4^+ T-cell CFSE^low or CD8^+ T-cell CFSE^low. The threshold of FACS-based intracellular cytokine staining (ICS) is ≥0.2%. […] The nine FIV peptides in black were used in the current MAP vaccine trial, whereas the 13 peptides in blue were not used. […] The MAPs and their corresponding peptide(s) were also tested for their ability to enhance or suppress in vitro FIV infection of feline PBMC (E/S of peptides and E/S of MAP).
(§4) The counterpart HIV-1 peptides of the FIV peptides were also tested for immunogenicity using PBMC and T cells from HIV^+ human subjects. […] The HRT7-1 and HRT7-2 were also tested with cells from HIV^+ subjects on ART. The threshold for positive IFNγ ELISpot response is ≥75 spot-forming units (SFU) per 10^6 PBMC. The threshold for CFSE-based CD4^+ (CD4^+ T) and CD8^+ (CD8^+ T) T-cell proliferation is ≥2% CD4^+ T-cell CFSE^low or CD8^+ T-cell CFSE^low. The threshold of intracellular cytokine staining (ICS) of FACS-based cytolysin (perforin) and cytotoxins (granzymes A and B) in CD4^+ T cells (CyCD4) and CD8^+ T cells (CyCD8) is ≥0.2%.

[2] = test system: CD3^+CD4^+ T cells from HIV^+ subjects; test: CFSE-based CD3+CD4+ T-cell proliferation, HIV+ human subjects; settings: for CD4, frequency of responders: FIV epitope peptide; for CDC4^+ T (T-cell proliferation), frequency of responders: FIV peptides
Protocol: as §1, §2, §3
as §4, with “≥0.2%. […] The nine HIV-1 peptides in black are the counterpart FIV peptides used in the current MAP vaccine trial, whereas the 13 peptides in blue were not.” for “≥0.2%.”

[3] = test system: CD3^+CD8^+ T cells from HIV^+ subjects; test: CFSE-based CD3+CD8+ T-cell proliferation, HIV+ human subjects; settings: for CD8, frequency of responders: FIV epitope peptide; for CD8^+ T (T-cell proliferation), frequency of responders: FIV peptides
Protocol: as §1, §2, §3
as §4, with “≥0.2%. […] The nine HIV-1 peptides in black are the counterpart FIV peptides used in the current MAP vaccine trial, whereas the 13 peptides in blue were not.” for “≥0.2%.”

[4] = ELISA and FIV immunoblot for antibodies to vaccine peptides/MAPs; type: in vivo, cat; settings: IWV/MAP-vaccinated cats, throughout the vaccination (pilot study)
Protocol: To avoid detection of vaccine antibodies to p24 and RT, post-challenge sera were evaluated for infection-induced FIV antibodies by ELISA using 200 ng/well of transmembrane peptide (TM, aa 694-705: […] (SEQ ID NO:68)) as previously described. The positive threshold for anti-TM antibodies was set at 0.2 O.D. The post-vaccination sera immediately before challenge were evaluated for NAb titer to FIVPet and FIVFC1 by NAb assay as previously described. The post-vaccination/pre-challenge sera were tested for antibodies to vaccine peptides by ELISA using each peptide as substrate and by FIV immunoblot with mini-blot modification as previously described. All ELISA thresholds were set at twice the average of the individual serum from 15-20 SPF cats.

[5] = test system: FIVFC1; test: FIV enhancement and suppression (E/S) analysis of in vitro FIV infection of feline PBMC; type: cell-based, feline immunodeficiency virus; settings: FIV-vaccinated cats; for E/S pMAP: viral enhancement or suppression: Palmitoyled Pam-MAP (pMAP) of the peptide, ** = MAP(Fp4-3/Fp14-1); for E/S: viral enhancement or suppression: peptide

Row | Sequence | IFNγ, frequency of responders ([1]; FIV epitope peptide) | IFNγ, frequency of responders ([1]; FIV peptides) | CD4, frequency of responders [2] | CDC4^+ T (T-cell proliferation), frequency of responders [2] | CD8, frequency of responders [3] | CD8^+ T (T-cell proliferation), frequency of responders [3] | Peptide-specific serum antibodies (ELISA) [4] | E/S pMAP: viral enhancement or suppression [5] | E/S: viral enhancement or suppression [5] | E/S tMAP: viral enhancement or suppression ([5]; Tat-MAP (tMAP) of the peptide)
1 | LLLILCLPTLVDCIRN [FTM8(20)] | — (0%-1.4% (—)) | — (0%-1.4%(—)) | ++ (26%-40% (++)) | ++ (25.1%-40% (++)) | ++++ (>54% (++++)) | ++++ (>54% (++++)) | – | – | – | –
2 | AGLRQSLEQYQVVKQ [FSU4] | — (0%-1.4% (—)) | — (0%-1.4%(—)) | — (0%-1.4% (—)) | — (0%-1.4%(—)) | — (0%-1.4% (—)) | — (0%-1.4%(—)) | – | – | – | –
3 | PTDMATLIMAAPGCA [Fp4-3] | — (0%-1.4% (—)) | — (0%-1.4%(—)) | — (0%-1.4% (—)) | — (0%-1.4%(—)) | — (0%-1.4% (—)) | — (0%-1.4%(—)) | No specific antibodies | ↑** | ↑ | –
4 | KFLYTAFAMQELR [FTM4-3] | — (0%-1.4% (—)) | — (0%-1.4%(—)) | — (0%-1.4% (—)) | — (0%-1.4%(—)) | — (0%-1.4% (—)) | — (0%-1.4%(—)) | – | – | – | –
5 | KKKSGKWRMLIDFRV [FRT3-3] | ++++ (>54% (++++)) | ++++ (>54% (++++)) | — (0%-1.4% (—)) | — (0%-1.4%(—)) | ++++ (>54% (++++)) | ++++ (>54% (++++)) | No specific antibodies | ↓X | ↑ | ↓+
6 | WRMLIDFRVLNKL [FRT3-4] | — (0%-1.4% (—)) | — (0%-1.4%(—)) | — (0%-1.4% (—)) | — (0%-1.4%(—)) | ++ (26%-40% (++)) | ++ (25.1%-40% (++)) | No specific antibodies | – | ↓ | –
